From patent publication US10683525B2, “Method for producing 2-O-glyceryl-alpha-D-glucopyranoside” (Technische Universität Graz, priority 2006, dated 2020)

Test system: mannitol dehydrogenase, MDH
Experiment: Stabilization of proteins during freeze drying
Format: biochemical
Conditions: MDH 0.8 mg/ml, 20-1500 mM αGG in 100 mM Tris/HCl buffer pH 7.0, lyophilized over-night and redissolved; irrespective of the added αGG concentration; 2% without any stabilizer
Description: The protein of interest (e.g. mannitol dehydrogenase, MDH) was incubated at a concentration of 0.8 mg/ml in the presence of 0, 20, 50, 100, 500, 1000 or 1500 mM αGG in 100 mM Tris/HCl buffer, pH 7.0. The samples were lyophilized over-night and dissolved in the same buffer again. The specific enzyme activity was determined, using appropriate assays for the corresponding enzyme as described elsewhere (Slatner M. et al., Biochemistry 38: 10489-10498), before and after freeze drying. Without any stabilizer added the enzymatic activity of MDH dropped down to 2% after freeze drying, whereas αGG is able to maintain enzymatic activity up to 48% irrespective of the added αGG concentration.

SMILES: OCC(CO)O[C@H]1O[C@H](CO)[C@@H](O)[C@H](O)[C@H]1O [αGG, 2-O-glyceryl-α-D-glucopyranoside]
- enzymatic activity of MDH maintained after freeze drying: up to 48%
